Legend:
[1] = molecular target: T1, human inositol monophosphatase (Homo sapiens, UniProt P29218); test: in vitro IMPase inhibition, malachite green phosphate assay; type: biochemical; settings: for IC50: human IMPase, constant amount of inositol monophosphate
T1 construct: made in house; host or cells: E. coli BL21 (DE3) pLysS
T1 sequence (P29218 1-277): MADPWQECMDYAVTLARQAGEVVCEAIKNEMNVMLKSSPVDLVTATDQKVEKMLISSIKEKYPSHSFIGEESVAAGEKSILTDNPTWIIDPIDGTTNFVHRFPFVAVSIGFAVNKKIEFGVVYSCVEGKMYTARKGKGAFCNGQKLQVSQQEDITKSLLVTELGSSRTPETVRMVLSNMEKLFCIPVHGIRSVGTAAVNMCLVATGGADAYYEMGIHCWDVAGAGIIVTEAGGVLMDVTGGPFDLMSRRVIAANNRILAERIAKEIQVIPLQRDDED
Text: Human inositol monophosphatase cDNA was ordered from Geneservice, Source Bioscience, Cambridge, UK. The cDNA was inserted into plasmid pRSET5a, which was then transformed into JM109 competent cells. These cells were allowed to multiply and the plasmid was then extracted from the cells. The plasmid was then transformed into expression bacteria, E.coli strain BL21 (DE3) pLysS. […] The next day the cells were lysed and the soluble fraction, which contained the enzyme, was collected. Purification was carried out in 3 stages. The soluble fraction was heated at 68° C. for 1 hour and then centrifuged. The supernatant was taken and run through a Q-sepharose column (Pharmacia). Different fractions were collected and assessed for activity. The active fractions were then passed through a Tricorn MonoQ 5/50 GL column (GE Healthcare, UK) for further purification.
Each enzymatic reaction using human inositol monophosphatase contained 0.00013 mg of enzyme (0.0673 mg/mL). The substrate inositol monophosphate (Alexis Chemicals) was diluted with the appropriate buffer to make up a concentration of 50 mM stock. The stock was then diluted with buffer to yield the following concentrations of substrate: 0 mM, 0.1 mM, 0.5 mM, 1.0 mM, 1.5 mM, 2.5 mM, 5 mM, 10 mM, 20 mM, 25 mM and 30 mM. From this 2 μL of substrate was added to each reaction well giving a tenfold dilution of substrate to 0 mM, 0.01 mM, 0.05 mM, 0.1 mM, 0.15 mM, 0.25 mM, 0.5 mM, 1 mM, 2 mM, 2.5 mM and 3 mM. The reaction buffer contained 1 mM EGTA, 150 mM KCl, 3 mM MgCl2, 0.5 ng/mL BSA, 50 mM Tri, HCl, pH 7.4 and 0.01% Triton X100.
A malachite green assay was used for the quantitative determination of free inorganic phosphate present at the end of the IMPase reaction. This involved dissolving 4.2% w/v ammonium molybdate in 4M hydrochloric acid. The Malachite Green itself was made up to 0.045% w/v concentration. From these stocks, a 3:1 malachite green:ammonium molybdate mixture was prepared and vortexed for thirty minutes. The malachite green forms a complex of ammonium molybdate:malachite green:inorganic phosphate in the presence of free inorganic phosphate. To each reaction plate, duplicate wells of a range of known phosphate concentrations were prepared within the concentration range of 0-300 μM with each well containing 20 μL of solution. The phosphate standards were made from serial dilutions of 1M potassium dihydrogen phosphate using double distilled H2O. To each well was added 180 μL of malachite green:ammonium molybdate mix. The colour produced by the reaction between the inorganic phosphate and malachite green:ammonium molybdate was proportional to the amount of phosphate present. The colour was allowed to develop for 15 min and then the plate was read on a TECAN Sunrise microplate reader at 595 nm wavelength.
For the reactions whose results are shown in FIG. 2, lithium (Sigma) was dissolved in double-distilled H2O and diluted appropriately to the concentration of 10 mM with 2 μL of lithium being added per well to yield a final well concentration of 1 mM. Stock concentrations of lithium were also made from this. L690330 was purchased from Sigma Chemicals, and was made up to a 1 mM stock concentration using H2O. From this stock the following concentrations were prepared using serial dilutions with water: 300 μM to 30 nM. These concentrations were used to produce a concentration-inhibition curve for the enzyme. Ebselen was purchased from BioFocus as a 10 mM stock in DMSO. […]

mice [2] = test: rearing experiments (infrared beam breaks, open-field test); type: in vivo, mouse; settings: p=0.023 (FIG. 9)
Description: Rearing experiments were also carried out as follows. Mice were allowed to move freely within a caged equipped with infrared beam lines placed at two heights.
Mice could only break the upper beams by rearing.

mice [3] = test: amphetamine-induced hyperactivity (animal model of mania); type: in vivo, mouse; settings: ebselen i.p., d-amphetamine 4 mg/kg after 60 minutes, 60 to 120 minutes, p<0.001 (FIGS. 7, 8)
Description: Activity and monitoring evaluation of mice was also studied. Mice were given an i.p. injection with saline (control) or ebselen (1, 5 or 10 mg/kg) and placed in a 35×35 cm perspex arena where their location was recorded by the Ethovision videotracking system (Noldus, Wageningen, The Netherlands). After 60 minutes, the mice were injected with d-amphetamine (4 mg/kg) or control. The Ethovision system follows the centre of the body of the mouse and records its position according to the location of this point. Data analysis was performed by Ethovision software, and distances moved within each 5 minute interval were calculated and plotted. The total distance moved was computed for the time frame from 60 to 120 minutes following the beginning of data acquisition. Amphetamine-induced hyperactivity is used as an animal model of mania, and is sensitive to mood-stabilising drugs such as lithium.

mice [4] = test: rearing experiments with intracerebroventricular inositol; type: in vivo, mouse; settings: ebselen 5 mg/kg i.p., after 60 minutes 5.5 μmol inositol intracerebroventricular (FIG. 10)
Description: In these rearing experiments, mice were given an intraperitoneal injection of control or ebselen (5 mg/kg), and after 60 minutes were given an intracerebroventricular injection of control or 5.5 μmol inositol.

inositol monophosphatase = test: mouse ex vivo assay of IMPase activity in brain homogenate; settings: 5 mg/kg i.p., CD1 male mice, 1 hour (FIG. 5)
Description: To determine the bio-availability of ebselen, a mouse ex vivo assay was used. In this assay mice were given an intraperitoneal (i.p.) injection of 5 mg/kg ebselen solublized in betacyclodextrin, according to the following procedure. A stock solution of 0.5 M ebselen in DMSO and a stock of 40% 2-Hydroxy propyl-beta-cyclodextrin (HPBCD) were made. A 3.5 mM solution of ebselen (from 0.5 M stock) was made into 40% HPBCD and finally, to obtain the concentration of 350 μM ebselen, a 1 in 10 dilution was carried out. A control solution was made containing the same dilution of DMSO and HPBCD. The volume of drug/vehicle injected i.p. into the mouse was 1 ml (for the animals dosed with ebselen this is approximately 5 mg/kg assuming each mouse weighs about 20 g). CD1 male mice, weighing approximately 20 g were used. The animals were dosed for one hour with either drug or vehicle before being killed by cervical dislocation. The brains were quickly dissected out and frozen in liquid nitrogen. […]
The protein concentration of each brain homogenate was determined and a stock of 2.5 mg of protein was made from the homogenate and stored. […] The intensity of the green color formed was measured at 595 nm.

rats = settings: cited from earlier work
[5] = test system: inositol levels in mice brains; test: ex vivo inositol levels in mice brains by 1H NMR; design: species or system mouse; settings: 1 hour after intraperitoneal injection, p<0.001 (FIG. 6)
Description: Similar conclusions can be reached from the results shown in FIG. 6, in which inositol levels in mice brains were measured ex vivo using ^1H NMR spectroscopy. The results were obtained from brains removed from mice 1 hour after intraperitoneal injection either with ebselen or with a control.

bovine IMPase = molecular target: T2, bovine IMPase (Bos taurus, UniProt P20456); settings: reported value; cited from earlier work
T2 sequence (P20456 1-277): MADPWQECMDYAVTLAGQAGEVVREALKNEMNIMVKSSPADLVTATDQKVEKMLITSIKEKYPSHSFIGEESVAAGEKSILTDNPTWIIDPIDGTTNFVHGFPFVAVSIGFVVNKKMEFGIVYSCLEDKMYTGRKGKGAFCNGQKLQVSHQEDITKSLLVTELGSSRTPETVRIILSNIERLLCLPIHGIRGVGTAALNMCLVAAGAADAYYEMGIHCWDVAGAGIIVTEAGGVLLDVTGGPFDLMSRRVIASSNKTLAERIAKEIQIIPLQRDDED

In the case of O=c1c2ccccc2sn1-c1ccccc1 [2-phenyl-1,2-benzisothiazol-3(2H)-one], the “in vitro inhibition of IMPase” value ([1]; 30 μM compound (FIG. 4)) is reported as “inhibition of IMPase is also achieved” and the IC50 [1] is reported as 35000 nM.
In the case of O=c1c2ccccc2[se]n1-c1ccccc1 [Ebselen, 2-phenyl-1,2-benzisoselenazol-3(2H)-one], the “number of beam breaks (rearing) during the open-field test” value (mice [2]) is reported as “significantly reduced”, the “level of amphetamine-induced hyperactivity” value (mice [3]) is reported as “reduced level of amphetamine-induced hyperactivity” and the “effects of ebselen on suppressing rearing behaviour after inositol injection” value (mice [4]) is reported as “significantly reduced”. For the same compound, the “amount of phosphate detected (IMPase activity in brain homogenate) compared to the control” value (inositol monophosphatase) was “significantly lower”, the LD50 (rats) was “greater than 1000 mg/kg” and the “inositol levels in the brain versus control” value [5] was “significantly lower”. The IC50 [1] was about 2000 nM and the mode of inhibition ([1]; purified human IMPase, various ebselen and substrate concentrations (FIG. 3)) was “non-competitive mode of inhibition”.
In the case of CC(Oc1ccc(O)cc1)(P(=O)(O)O)P(=O)(O)O [L690330], the IC50 (bovine IMPase) is listed as about 300 nM and the IC50 [1] is listed as 1500 nM.

From US8901158B2, “Treatment of bipolar disorder” (Isis Innovation Ltd., priority 2011, dated 2014)
